The term Kd denotes the concentration at which binding is half-saturated. Read a high Kd as weaker binding. Broadly, the IC50 is the point on the concentration scale where inhibition reaches its midpoint.

We go through two compounds from US7468391B2, “Methods for treating retinoid responsive disorders using selective inhibitors of CYP26A and CYP26B” (Allergan, Inc., priority 2003, dated 2008).

The target in one experiment is T1, RAR α (Homo sapiens, UniProt P10276).
T1 sequence (P10276 1-462): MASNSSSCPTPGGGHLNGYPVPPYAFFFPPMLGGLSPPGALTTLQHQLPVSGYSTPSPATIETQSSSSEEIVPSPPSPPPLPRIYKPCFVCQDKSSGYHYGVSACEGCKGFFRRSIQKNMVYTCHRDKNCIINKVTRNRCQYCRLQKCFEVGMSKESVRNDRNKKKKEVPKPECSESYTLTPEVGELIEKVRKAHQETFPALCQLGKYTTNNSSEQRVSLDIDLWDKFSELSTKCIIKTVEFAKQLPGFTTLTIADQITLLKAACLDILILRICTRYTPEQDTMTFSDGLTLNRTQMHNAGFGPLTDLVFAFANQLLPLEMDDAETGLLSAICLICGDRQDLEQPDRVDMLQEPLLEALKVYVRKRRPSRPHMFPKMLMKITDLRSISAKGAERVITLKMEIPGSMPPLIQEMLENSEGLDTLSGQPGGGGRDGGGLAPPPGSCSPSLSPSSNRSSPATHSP
Kind of experiment: RAR α Kd. In kind it is binding. The following applies: Table 3.

For a further experiment, the target named is T2, CYP26B (P450RAI-2) (Homo sapiens, UniProt Q9NR63).
T2 construct: expressed in transfected cells; host or cells: HeLa
T2 sequence (Q9NR63 1-512): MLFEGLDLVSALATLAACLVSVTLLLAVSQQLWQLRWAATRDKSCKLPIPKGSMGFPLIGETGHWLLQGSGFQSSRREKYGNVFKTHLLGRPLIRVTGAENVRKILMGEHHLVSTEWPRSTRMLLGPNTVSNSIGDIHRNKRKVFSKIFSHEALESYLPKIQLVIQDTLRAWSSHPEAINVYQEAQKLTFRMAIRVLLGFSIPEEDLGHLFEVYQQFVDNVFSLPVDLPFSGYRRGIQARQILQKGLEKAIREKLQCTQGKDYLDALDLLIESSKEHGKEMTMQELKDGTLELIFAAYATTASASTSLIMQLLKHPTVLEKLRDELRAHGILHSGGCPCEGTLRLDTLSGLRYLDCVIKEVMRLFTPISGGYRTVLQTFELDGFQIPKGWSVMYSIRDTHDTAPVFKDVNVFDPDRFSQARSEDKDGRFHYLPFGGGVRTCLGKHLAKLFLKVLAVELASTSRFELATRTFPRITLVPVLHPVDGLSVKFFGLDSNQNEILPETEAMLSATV
Kind of experiment: Cell-based inhibition of RA metabolism in CYP26B stably transfected HeLa cells. The settings on record: for IC50: Table 3, stably transfected HeLa cells, [3H]-RA, 3 hours at 37° C., read-out: CYP26B Intact cells IC50. In a few lines:
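Stably transfected HeLa cells (5×10^5/well) in MEM with 10% FBS and 0.05 μCi [3H]-RA, compounds at 10, 1 or 0.1 μM final, 3 h at 37° C. Retinoids extracted by modified Bligh-Dyer (methylene chloride); aqueous radioactivity counted; ID50 for 50% inhibition of RA metabolism derived from log-transformed data.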

The target in a further experiment is T3, RAR β (Homo sapiens, UniProt P10826).
T3 sequence (P10826 1-455): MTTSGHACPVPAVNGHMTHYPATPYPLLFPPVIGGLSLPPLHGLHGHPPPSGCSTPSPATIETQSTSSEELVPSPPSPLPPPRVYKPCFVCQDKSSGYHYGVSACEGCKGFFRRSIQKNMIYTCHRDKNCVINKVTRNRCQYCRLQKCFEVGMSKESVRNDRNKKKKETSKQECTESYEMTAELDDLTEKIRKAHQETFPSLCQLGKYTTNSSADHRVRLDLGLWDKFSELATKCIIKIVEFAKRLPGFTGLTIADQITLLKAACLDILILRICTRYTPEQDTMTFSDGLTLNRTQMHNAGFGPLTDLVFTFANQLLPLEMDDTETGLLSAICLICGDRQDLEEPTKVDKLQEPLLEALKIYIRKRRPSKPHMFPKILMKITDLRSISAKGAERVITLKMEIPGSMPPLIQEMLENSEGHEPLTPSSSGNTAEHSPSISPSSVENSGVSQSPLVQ
Kind of experiment: RAR β EC50/(efficacy). The class given is cell-based. The following applies: Table 3.

The compound `CN(C1CC1)C1CCC(C)(C)c2cc(C#Cc3ccc(C(C)(C)C(=O)O)cc3)ccc21` (stereo not shown) [AGN 198790] gave a Kd on RAR α greater than 10 µM. Further, the half-inhibitory concentration (IC50) on CYP26B (P450RAI-2) was greater than 10000 nM. In addition, the “RAR β (EFFICACY)” value at RAR β is less than 5.

As to `CN(Cc1cccc(C#Cc2ccc(/C=C/C(=O)O)cc2)c1)C1CC1` [AGN 199713], on RAR α, the Kd was greater than 10 µM. Moreover, the half-inhibitory concentration (IC50) at CYP26B (P450RAI-2) is 600 nM. Besides, at CYP26B (P450RAI-2) (ratio of ID50 values), the “selectivity for CYP26B relative to CYP26A” value was “at least 10 fold”. In addition, the “RAR β (EFFICACY)” value at RAR β is recorded as 25.
